Results as given in article PMC5562305, “Impact of novel palmitoylated prolactin-releasing peptide analogs on metabolic changes in mice with diet-induced obesity” (PLoS ONE, 2017).
Starred links: 1 amine or outer side, 2 acyl side, 3 side chain; linkers in the order of their positions; H or OH if unused. Residues, ends and D or L forms follow the SMILES beside them. Groups on a side chain read outwards from the residue. *: point of attachment. TTDA(Palmitoyl) = CCCCCCCCCCCCCCCC(=O)NCCCOCCOCCOCCCN*; Suc = O=C(CCC(=O)[*:2])[*:1]

System: urinary metabolites
Test: NMR-based metabolomics of urine of DIO mice
Assay type: in vivo, C57BL/6 mice
Parameters: key to DMA, Mean / DMG, Mean / MA, Mean / TMA, Mean / acetate, Mean / allantoin, Mean / carnitine, Mean / choline, Mean / cis-aconitate, Mean / creatine+creatinine, Mean / creatine, Mean / creatinine, Mean / ethanolamine, Mean / formate, Mean / galactose, Mean / glucose, Mean / glycine, Mean / lactate, Mean / succinate, Mean / vinylacetylglycine, Mean: TSA-normalized intensity of the metabolite's representative NMR signal
Conditions: urine of DIO mice, NMR metabolomics
Protocol: Urine samples for NMR-based metabolomics were collected prior to the start of the interventions and at the end of the experiment. For overnight urine collection (from 5 pm to 8 am), the mice were housed in individual metabolic cages (Tecniplast, Buguggiate, Italy) without access to food. Samples were collected with the addition of NaN3 and stored at -80°C until NMR analysis.
The urine samples were thawed at room temperature and centrifuged at 13 684 x g for 5 min prior to the NMR experiments. A 200-μl aliquot of supernatant was diluted with 340 μl of H2O mixed with 60 μl of phosphate buffer (1.5 M KH2PO4 in D2O containing 2 mM NaN3 and 0.1% trimethylsilyl propionic acid (TSP), pH 7.4) and transferred to a 5-mm NMR tube. The NMR data were acquired with a 600 MHz Bruker Avance III spectrometer (Bruker BioSpin, Rheinstetten, Germany) equipped with a 5-mm TCI cryogenic probe head. All of the experiments were performed at 300 K. Automatic tuning, matching, shimming and adjusting of the 90° pulse length were performed for each sample.
As mouse urine naturally contains urinary proteins, the NMR spectra were acquired using a Carr-Purcell-Meiboom-Gill (CPMG) pulse sequence with water presaturation (Bruker pulse sequence cpmgpr1d) to eliminate the strong protein background. […] For better metabolite identification, a short J-resolved experiment with presaturation (NS = 2, SW = 16 ppm, TD = 8k, number of increments = 40, SW = 78.125 Hz in the indirect dimension, and relaxation delay = 2 s) was executed for all samples. Additional two-dimensional ^1H-^1H correlation spectroscopy (COSY) and ^1H-^13C heteronuclear multiple-quantum correlation (HMQC) experiments (Bruker pulse sequences cosygpprqf and hmqcphpr) were performed for selected samples.
The acquired data were processed using Topspin 3.2 software (Bruker BioSpin, Rheinstetten, Germany). Line broadening of 0.3 Hz was applied on free induction decays (FIDs) prior to Fourier transformation. The spectra were automatically phased, baseline corrected and referenced to the signal of TSP (0.00 ppm).
The assignment of individual metabolites was achieved by comparing the proton spectra with the spectra of pure metabolites using Chenomx NMR Suite 7.6 (Chenomx Inc., Edmonton, AB, Canada), the HMDB database and previously published metabolomic data. The identification of metabolites was supported through J-resolved and COSY experiments and, if possible, confirmed using carbon chemical shifts extracted from the HMQC spectra.
For quantitation of individual metabolites, the CPMG spectra were uniformly binned in the range of 0.10–10.00 ppm to 0.01-ppm intervals using AMIX software (Bruker BioSpin, Rheinstetten, Germany). This procedure reduced the dimensionality of the data, eliminated chemical shift variations and thus simplified the reproducible automatic quantification. Regions corresponding to water (4.60–4.90 ppm) and urea (5.60–6.00 ppm) were removed prior to analysis. As the dilutions of the original urine samples differed (due to the differences in water intake during urine collection), all of the spectra were normalized to the total spectral area (TSA). For each identified metabolite, one representative signal was chosen and then quantified as the sum of appropriate adjacent 0.01-ppm bins to cover the whole signal width. The metabolite concentration was expressed as the TSA-normalized intensity of the respective signal. For selection of an appropriate statistical method (parametric or non-parametric) the Lilliefors test of normality was performed. […] Metabolite alterations with a P < 0.05 were considered statistically significant. Statistical analysis was performed using Matlab software (“MATLAB version 8.6 (R2015b). Natick, Massachusetts: The MathWorks Inc., 2015.,” n.d.). […]

[1] = difference of analog mean vs saline mean

Structure (SMILES): CCCCCCCCCCCCCCCC(=O)NCCCOCCOCCOCCCNC(=O)CCC(=O)NCCCC[C@H](NC(=O)[C@@H](NC(=O)[C@H](CCC(=O)O)NC(=O)[C@H](CCSC)NC(=O)[C@H](CO)NC(=O)[C@H](Cc1c[nH]cn1)NC(=O)[C@H](CCCNC(=N)N)NC(=O)[C@H](Cc1c[nH]cn1)NC(=O)[C@@H](NC(=O)[C@H](CCCNC(=N)N)NC(=O)[C@H](CO)NC(=O)CCC(=O)NCCCOCCOCCOCCCNC(=O)CCCCCCCCCCCCCCC)[C@@H](C)O)[C@@H](C)CC)C(=O)N[C@H](C(=O)N1CCC[C@H]1C(=O)N[C@@H](CC(=O)O)C(=O)N[C@H](C(=O)N[C@@H](CC(N)=O)C(=O)N1CCC[C@H]1C(=O)N[C@@H](C)C(=O)N[C@@H](Cc1c[nH]c2ccccc12)C(=O)N[C@@H](Cc1ccc(O)cc1)C(=O)N[C@@H](C)C(=O)N[C@@H](CO)C(=O)N[C@@H](CCCNC(=N)N)C(=O)NCC(=O)N[C@H](C(=O)N[C@@H](CCCNC(=N)N)C(=O)N1CCC[C@H]1C(=O)N[C@H](C(=O)NCC(=O)N[C@@H](CCCNC(=N)N)C(=O)N[C@@H](Cc1ccccc1)C(N)=O)C(C)C)[C@@H](C)CC)[C@@H](C)CC)[C@@H](C)O [analog 3] ({TTDA(Palmitoyl)-Suc}-SRTHRHSMEIK([Suc-TTDA(Palmitoyl)])TPDINPAWYASRGIRPVGRF-NH2)
- creatine, Saline/analog % [1]: 0.053%
- creatinine, Saline/analog % [1]: 0.053%
- ethanolamine, Saline/analog % [1]: 0.053%
- formate, Saline/analog % [1]: 0.00334%
- fumarate, Saline/analog % [1]: -0.141%
- galactose, Saline/analog % [1]: -0.254%
- glucose, Saline/analog % [1]: -0.116%
- glycine, Saline/analog % [1]: -0.035%
- hexanoylglycine + acids (0.88 ppm), Saline/analog % [1]: 0.165%
- hippurate (7.55 ppm), Saline/analog % [1]: -0.140%
- hippurate (7.64 ppm), Saline/analog % [1]: -0.133%
- hippurate (7.84 ppm), Saline/analog % [1]: -0.124%
- lactate, Saline/analog % [1]: 0.112%
- multiplet acids (1.6 ppm), Saline/analog % [1]: 0.172%
- putrescin, Saline/analog % [1]: -0.021%
- succinate, Saline/analog % [1]: -0.140%
- taurine (3.27 ppm), Saline/analog % [1]: -0.063%
- taurine (3.43 ppm), Saline/analog % [1]: -0.093%
- trigonelline (8.84 ppm), Saline/analog % [1]: -0.159%
- trigonelline (9.13 ppm), Saline/analog % [1]: -0.171%
- vinylacetylglycine, Saline/analog % [1]: 0.175%
- 2-OG (2.45 ppm), Mean (group mean): 11.878
- 2-OG (3.01 ppm), Mean (group mean): 10.469
- 2-PY (8.33 ppm), Mean (group mean): 1.098
- 3-indoxylsulfate (7.51 ppm), Mean (group mean): 1.344
- 3-indoxylsulfate (7.71 ppm), Mean (group mean): 0.810
- 4-PY (7.97 ppm), Mean (group mean): 2.017
- 4-PY (8.55 ppm), Mean (group mean): 0.633
- DMA, Mean (group mean): 5.618
- DMG, Mean (group mean): 1.853
- MA, Mean (group mean): 3.016
- MNA (8.90 ppm), Mean (group mean): 0.487
- MNA (8.97 ppm), Mean (group mean): 0.470
- MNA (9.265 ppm), Mean (group mean): 0.490
- MNA-Nox (7.75 ppm), Mean (group mean): 0.972
- MNA-Nox (8.13 ppm), Mean (group mean): 0.792
- MNA-Nox (8.49 ppm), Mean (group mean): 0.511
- MNA-Nox (8.75 ppm), Mean (group mean): 0.485
- N-carbamoylalanine (2.38 ppm), Mean (group mean): 11.854
- N-carbamoylalanine (3.31 ppm), Mean (group mean): 9.499
- N-isovalerylglycine + oxovalerate (0.92 ppm), Mean (group mean): 16.056
- TMA, Mean (group mean): 11.780
- acetate, Mean (group mean): 3.429
- allantoin, Mean (group mean): 22.447
- carnitine, Mean (group mean): 6.067
- choline, Mean (group mean): 1.970
- cis-aconitate, Mean (group mean): 8.481
- citrate (2.55 ppm), Mean (group mean): 29.434
- citrate (2.69 ppm), Mean (group mean): 26.220
- creatine+creatinine, Mean (group mean): 24.904
- creatine, Mean (group mean): 7.343
- creatinine, Mean (group mean): 11.686
- ethanolamine, Mean (group mean): 8.370
- formate, Mean (group mean): 0.199
- fumarate, Mean (group mean): 0.151
- galactose, Mean (group mean): 0.578
- glucose, Mean (group mean): 3.207
- glycine, Mean (group mean): 5.874
- hexanoylglycine + acids (0.88 ppm), Mean (group mean): 15.361
- hippurate (7.55 ppm), Mean (group mean): 3.987
- hippurate (7.64 ppm), Mean (group mean): 2.057
- hippurate (7.84 ppm), Mean (group mean): 4.311
- lactate, Mean (group mean): 6.853
- multiplet acids (1.6 ppm), Mean (group mean): 12.521
- putrescin, Mean (group mean): 8.726
- succinate, Mean (group mean): 9.267
- taurine (3.27 ppm), Mean (group mean): 24.146
- taurine (3.43 ppm), Mean (group mean): 20.508
- trigonelline (8.84 ppm), Mean (group mean): 0.263
- trigonelline (9.13 ppm), Mean (group mean): 0.106
- vinylacetylglycine, Mean (group mean): 3.527
